In ChEMBL document CHEMBL5465560, “Selectivity Literature for EUbOPEN Chemogenomic Library” (2024):

Key:
[1] = target: T1, Non-receptor tyrosine-protein kinase TNK1 (Homo sapiens) (UniProt Q13470); test: Selectivity interaction (Kinase panel (Z-LYTE Assay)) EUB0001632a TNK1; settings: at 10 µM
T1 sequence (whole entry): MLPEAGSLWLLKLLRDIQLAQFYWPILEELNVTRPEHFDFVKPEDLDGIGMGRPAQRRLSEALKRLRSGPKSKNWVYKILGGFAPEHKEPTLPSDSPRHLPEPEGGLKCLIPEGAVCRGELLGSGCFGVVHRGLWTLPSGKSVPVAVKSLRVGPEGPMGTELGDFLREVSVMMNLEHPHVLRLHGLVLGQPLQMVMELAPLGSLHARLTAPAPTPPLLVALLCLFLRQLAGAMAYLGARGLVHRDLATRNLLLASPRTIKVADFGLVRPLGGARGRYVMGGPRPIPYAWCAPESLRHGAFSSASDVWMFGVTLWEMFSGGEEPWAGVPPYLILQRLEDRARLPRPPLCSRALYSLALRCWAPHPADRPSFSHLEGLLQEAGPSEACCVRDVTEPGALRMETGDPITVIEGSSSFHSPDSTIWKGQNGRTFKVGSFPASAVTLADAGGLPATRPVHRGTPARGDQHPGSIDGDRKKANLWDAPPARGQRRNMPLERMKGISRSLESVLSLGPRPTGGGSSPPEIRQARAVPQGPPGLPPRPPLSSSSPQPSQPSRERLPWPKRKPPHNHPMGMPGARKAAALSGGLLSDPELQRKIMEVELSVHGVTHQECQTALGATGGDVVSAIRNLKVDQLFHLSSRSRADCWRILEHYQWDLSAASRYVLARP

[2] = target: Serine/threonine-protein kinase pim-2 (Homo sapiens, UniProt Q9P1W9); test: Selectivity interaction (SelectScreen profiling (Invitrogen)) EUB0000607a PIM2; settings: at 2 µM
[3] = target: Tyrosine-protein kinase ABL2 (Homo sapiens, UniProt P42684); test: Selectivity interaction (ActivX KiNativ screen (kinase selectivity in THP-1 cell lysates)) EUB0000639a ABL2; type: subcellular; settings: lysate, at 1 µM
[4] = target: Mitogen-activated protein kinase kinase kinase 1 (Homo sapiens, UniProt Q13233); test: Selectivity interaction (KinomeScan (DiscoverX)) EUB0000595a MAP3K1; settings: at 10 µM
[5] = target: T2, Calcium/calmodulin-dependent protein kinase type IV (Homo sapiens) (UniProt Q16566); settings: at 10 µM
T2 sequence (whole entry): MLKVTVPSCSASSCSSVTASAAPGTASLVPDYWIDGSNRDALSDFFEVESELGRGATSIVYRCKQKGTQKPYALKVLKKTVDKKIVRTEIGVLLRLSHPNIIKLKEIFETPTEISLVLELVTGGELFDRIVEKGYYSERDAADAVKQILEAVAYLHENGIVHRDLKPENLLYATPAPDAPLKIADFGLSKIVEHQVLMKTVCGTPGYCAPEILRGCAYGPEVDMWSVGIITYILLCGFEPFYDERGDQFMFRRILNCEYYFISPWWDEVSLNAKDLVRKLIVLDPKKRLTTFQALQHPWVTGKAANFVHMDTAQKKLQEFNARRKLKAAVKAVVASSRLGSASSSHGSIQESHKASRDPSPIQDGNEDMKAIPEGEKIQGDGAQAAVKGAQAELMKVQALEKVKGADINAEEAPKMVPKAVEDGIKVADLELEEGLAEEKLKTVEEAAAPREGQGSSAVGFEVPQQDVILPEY

Activated CDC42 kinase 1 = Activated CDC42 kinase 1 (Homo sapiens, UniProt Q07912); test: Selectivity interaction (KinomeScan (DiscoverX)) EUB0000595a TNK2; settings: at 10 µM
[6] = target: Tyrosine-protein kinase BTK (Homo sapiens, UniProt Q06187); test: Selectivity interaction (Kinase screening (Nanosyn)) EUB0000604a BTK
[7] = target: T3, Serine/threonine-protein kinase DCLK1 (Homo sapiens) (UniProt O15075); test: Selectivity interaction (KinomeScan (DiscoverX)) EUB0000229b DCLK1; settings: at 10 µM
T3 sequence (whole entry): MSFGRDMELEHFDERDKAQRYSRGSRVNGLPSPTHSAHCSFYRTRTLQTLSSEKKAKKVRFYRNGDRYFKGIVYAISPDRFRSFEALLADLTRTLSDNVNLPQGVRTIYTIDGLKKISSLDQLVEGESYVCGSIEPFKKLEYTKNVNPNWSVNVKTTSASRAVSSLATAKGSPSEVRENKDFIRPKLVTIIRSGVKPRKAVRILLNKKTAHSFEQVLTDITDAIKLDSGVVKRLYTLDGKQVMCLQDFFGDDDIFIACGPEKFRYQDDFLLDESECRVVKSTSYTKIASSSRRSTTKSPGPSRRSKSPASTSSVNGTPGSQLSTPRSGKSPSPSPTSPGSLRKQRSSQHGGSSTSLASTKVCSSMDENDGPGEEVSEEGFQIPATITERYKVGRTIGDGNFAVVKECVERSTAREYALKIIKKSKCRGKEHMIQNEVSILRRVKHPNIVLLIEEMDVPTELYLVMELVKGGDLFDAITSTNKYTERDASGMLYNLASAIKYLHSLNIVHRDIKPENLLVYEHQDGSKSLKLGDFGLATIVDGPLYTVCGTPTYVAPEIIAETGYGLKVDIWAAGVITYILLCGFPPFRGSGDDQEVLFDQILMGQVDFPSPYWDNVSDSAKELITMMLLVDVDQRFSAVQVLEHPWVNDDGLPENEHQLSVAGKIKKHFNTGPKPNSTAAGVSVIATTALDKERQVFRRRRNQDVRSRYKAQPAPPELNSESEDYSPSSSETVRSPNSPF

[8] = target: T4, Serine/threonine-protein kinase Nek11 (Homo sapiens) (UniProt Q8NG66); test: Selectivity interaction (KinomeScan (DiscoverX)) EUB0000618a NEK11; settings: at 10 µM
T4 sequence (whole entry): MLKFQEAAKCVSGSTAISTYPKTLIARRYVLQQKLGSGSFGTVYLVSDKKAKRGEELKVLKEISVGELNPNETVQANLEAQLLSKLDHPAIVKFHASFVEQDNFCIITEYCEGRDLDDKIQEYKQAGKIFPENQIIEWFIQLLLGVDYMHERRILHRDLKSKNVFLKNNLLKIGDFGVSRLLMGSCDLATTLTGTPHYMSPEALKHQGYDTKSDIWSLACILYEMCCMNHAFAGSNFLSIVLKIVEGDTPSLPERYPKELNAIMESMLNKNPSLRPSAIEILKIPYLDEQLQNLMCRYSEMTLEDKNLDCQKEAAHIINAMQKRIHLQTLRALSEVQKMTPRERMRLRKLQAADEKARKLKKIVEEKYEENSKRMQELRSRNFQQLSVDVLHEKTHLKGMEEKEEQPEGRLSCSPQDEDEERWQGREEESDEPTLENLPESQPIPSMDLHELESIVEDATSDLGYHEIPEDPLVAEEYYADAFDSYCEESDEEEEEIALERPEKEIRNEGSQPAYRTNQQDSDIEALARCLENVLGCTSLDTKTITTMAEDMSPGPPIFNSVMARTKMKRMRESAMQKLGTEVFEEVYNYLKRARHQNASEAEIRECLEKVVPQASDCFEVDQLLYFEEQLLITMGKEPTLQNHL

Sequence of Tyrosine-protein kinase BTK (Q06187 whole entry): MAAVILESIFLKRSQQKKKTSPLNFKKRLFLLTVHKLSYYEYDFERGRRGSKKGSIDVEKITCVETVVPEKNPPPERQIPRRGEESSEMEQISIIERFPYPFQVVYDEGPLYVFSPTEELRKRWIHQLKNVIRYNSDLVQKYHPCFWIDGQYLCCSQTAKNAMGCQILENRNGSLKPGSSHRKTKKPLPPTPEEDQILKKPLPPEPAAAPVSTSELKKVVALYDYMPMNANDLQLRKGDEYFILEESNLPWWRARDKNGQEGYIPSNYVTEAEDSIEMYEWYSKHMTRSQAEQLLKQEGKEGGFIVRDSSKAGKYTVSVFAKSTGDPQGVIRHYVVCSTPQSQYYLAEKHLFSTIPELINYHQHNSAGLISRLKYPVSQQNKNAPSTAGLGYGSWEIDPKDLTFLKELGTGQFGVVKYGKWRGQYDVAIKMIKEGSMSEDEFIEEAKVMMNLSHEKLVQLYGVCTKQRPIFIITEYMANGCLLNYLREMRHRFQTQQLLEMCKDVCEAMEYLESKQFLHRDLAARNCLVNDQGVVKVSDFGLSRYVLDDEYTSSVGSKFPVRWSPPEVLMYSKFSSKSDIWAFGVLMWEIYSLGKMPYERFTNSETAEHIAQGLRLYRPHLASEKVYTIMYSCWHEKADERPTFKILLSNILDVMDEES
Sequence of Mitogen-activated protein kinase kinase kinase 1 (Q13233 whole entry): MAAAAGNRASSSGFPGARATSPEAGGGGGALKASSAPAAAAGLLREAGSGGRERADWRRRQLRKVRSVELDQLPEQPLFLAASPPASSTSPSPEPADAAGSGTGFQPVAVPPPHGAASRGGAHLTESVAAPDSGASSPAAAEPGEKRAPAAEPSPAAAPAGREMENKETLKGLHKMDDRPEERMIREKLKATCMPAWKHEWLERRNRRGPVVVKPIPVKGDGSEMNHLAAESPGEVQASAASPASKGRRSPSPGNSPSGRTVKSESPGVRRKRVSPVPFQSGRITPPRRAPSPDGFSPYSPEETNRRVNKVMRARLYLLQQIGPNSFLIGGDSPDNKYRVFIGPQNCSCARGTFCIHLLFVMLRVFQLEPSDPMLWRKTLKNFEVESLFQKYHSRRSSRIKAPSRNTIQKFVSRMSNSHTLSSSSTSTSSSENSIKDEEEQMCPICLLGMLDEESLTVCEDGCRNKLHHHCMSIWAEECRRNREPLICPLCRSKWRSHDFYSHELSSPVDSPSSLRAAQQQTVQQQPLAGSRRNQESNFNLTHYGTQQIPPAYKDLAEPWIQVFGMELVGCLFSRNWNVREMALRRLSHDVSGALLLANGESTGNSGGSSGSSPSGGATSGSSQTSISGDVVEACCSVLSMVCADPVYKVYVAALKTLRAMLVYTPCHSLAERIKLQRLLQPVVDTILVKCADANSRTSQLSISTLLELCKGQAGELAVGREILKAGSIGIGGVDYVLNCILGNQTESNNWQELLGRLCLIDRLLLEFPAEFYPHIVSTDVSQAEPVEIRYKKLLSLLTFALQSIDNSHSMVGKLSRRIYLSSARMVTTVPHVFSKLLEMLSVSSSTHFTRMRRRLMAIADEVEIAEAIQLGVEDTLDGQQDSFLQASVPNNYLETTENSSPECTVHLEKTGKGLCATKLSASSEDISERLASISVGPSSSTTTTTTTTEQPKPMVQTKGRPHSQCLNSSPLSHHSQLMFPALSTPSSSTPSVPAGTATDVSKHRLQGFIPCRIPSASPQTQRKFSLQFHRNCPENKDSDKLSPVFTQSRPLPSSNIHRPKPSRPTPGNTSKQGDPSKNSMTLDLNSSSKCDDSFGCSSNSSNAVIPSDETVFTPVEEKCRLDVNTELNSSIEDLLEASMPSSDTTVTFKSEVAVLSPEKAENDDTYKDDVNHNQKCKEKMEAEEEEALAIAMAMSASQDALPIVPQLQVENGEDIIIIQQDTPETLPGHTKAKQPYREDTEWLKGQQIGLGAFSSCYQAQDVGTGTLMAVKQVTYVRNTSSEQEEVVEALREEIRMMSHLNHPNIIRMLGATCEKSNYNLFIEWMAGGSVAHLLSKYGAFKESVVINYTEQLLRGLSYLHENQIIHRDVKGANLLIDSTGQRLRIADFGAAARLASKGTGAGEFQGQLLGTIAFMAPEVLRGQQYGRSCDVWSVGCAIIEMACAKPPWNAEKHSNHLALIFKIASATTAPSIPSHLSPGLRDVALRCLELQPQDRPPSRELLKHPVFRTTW
Sequence of Serine/threonine-protein kinase pim-2 (Q9P1W9 whole entry, looked up): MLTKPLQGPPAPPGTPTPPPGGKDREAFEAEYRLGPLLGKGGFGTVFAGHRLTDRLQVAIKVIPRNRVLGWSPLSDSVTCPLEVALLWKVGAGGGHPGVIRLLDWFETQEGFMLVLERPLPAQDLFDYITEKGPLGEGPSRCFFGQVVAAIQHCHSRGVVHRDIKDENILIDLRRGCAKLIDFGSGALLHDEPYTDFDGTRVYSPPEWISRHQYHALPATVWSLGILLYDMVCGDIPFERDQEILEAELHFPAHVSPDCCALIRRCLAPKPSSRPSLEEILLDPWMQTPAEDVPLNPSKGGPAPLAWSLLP
Sequence of Tyrosine-protein kinase ABL2 (P42684 whole entry): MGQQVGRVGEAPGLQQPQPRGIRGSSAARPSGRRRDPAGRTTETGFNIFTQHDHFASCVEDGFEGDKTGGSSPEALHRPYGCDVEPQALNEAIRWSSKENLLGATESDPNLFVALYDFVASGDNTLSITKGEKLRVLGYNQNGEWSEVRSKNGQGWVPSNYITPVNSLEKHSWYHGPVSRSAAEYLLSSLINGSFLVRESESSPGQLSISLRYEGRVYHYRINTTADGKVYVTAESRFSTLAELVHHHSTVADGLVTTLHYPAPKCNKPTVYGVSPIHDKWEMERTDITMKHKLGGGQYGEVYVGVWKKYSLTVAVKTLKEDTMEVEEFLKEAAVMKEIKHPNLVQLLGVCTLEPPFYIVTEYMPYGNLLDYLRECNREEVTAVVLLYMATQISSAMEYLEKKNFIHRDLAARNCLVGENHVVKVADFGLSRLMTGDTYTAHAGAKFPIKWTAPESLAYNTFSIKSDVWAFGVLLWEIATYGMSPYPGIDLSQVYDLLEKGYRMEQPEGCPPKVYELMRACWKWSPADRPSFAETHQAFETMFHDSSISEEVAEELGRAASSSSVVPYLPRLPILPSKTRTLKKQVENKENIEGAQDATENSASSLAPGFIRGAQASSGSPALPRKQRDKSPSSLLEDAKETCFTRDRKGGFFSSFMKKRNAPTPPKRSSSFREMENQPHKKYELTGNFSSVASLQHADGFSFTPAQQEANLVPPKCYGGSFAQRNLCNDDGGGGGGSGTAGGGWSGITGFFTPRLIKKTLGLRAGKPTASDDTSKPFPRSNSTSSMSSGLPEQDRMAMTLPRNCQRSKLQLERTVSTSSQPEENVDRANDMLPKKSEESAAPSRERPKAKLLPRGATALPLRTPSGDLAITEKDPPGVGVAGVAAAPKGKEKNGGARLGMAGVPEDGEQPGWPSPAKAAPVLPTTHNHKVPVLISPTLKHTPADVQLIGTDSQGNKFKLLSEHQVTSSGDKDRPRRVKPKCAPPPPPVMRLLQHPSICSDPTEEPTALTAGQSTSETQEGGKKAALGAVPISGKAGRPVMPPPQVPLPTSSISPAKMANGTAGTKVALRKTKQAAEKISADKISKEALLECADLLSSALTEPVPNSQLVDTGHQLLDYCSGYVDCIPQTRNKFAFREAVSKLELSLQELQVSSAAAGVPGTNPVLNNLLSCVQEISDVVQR
Sequence of Activated CDC42 kinase 1 (Q07912 whole entry, looked up): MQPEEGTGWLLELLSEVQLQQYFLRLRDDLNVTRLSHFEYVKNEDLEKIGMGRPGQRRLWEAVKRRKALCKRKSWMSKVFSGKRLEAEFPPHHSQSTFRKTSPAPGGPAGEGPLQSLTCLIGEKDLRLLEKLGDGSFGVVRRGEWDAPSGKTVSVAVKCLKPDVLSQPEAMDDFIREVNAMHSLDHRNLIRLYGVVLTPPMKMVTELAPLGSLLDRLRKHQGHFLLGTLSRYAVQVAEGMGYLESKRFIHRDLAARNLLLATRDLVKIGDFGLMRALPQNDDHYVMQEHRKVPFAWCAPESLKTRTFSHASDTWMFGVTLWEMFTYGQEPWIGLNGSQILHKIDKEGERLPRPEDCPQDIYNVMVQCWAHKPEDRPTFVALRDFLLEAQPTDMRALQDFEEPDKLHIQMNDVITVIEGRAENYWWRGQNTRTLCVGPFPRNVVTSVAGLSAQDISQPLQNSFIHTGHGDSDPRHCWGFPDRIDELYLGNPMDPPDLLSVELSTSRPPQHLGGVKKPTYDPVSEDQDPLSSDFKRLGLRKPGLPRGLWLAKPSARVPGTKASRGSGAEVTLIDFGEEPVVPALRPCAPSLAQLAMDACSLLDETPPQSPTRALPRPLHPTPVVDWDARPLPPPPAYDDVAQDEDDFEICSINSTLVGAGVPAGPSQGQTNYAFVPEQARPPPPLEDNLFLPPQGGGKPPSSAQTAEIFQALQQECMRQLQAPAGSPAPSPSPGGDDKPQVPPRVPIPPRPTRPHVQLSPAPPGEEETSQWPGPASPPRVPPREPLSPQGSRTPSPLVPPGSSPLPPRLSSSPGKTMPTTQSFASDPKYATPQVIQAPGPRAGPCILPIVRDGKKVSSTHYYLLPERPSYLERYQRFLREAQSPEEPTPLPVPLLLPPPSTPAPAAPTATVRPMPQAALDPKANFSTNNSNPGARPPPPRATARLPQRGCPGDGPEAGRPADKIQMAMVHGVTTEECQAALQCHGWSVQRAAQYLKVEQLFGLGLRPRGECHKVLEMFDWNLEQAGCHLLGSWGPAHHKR

`Cn1cc(-n2cnc3c(NCc4nc5cc(Cl)c(Cl)cc5[nH]4)nc(N4CCOCC4)nc32)cn1` was tested, and the % of control [1] was 4.62%.

In the case of `CNC(=O)Nc1ccc(-c2nc(N3CC4CCC(C3)O4)c3cnn(C4CCC5(CC4)OCCO5)c3n2)cc1`, the % of inhibition [2] is reported as 3%.

Molecule `CC[C@@H]1[C@H](F)C(=O)N[C@@H]1COc1nccc2cc(C(N)=O)c(OC)cc12` [ZIMLOVISERTIB] has a % of inhibition [3] of -13.2%.

`COCC(=O)NC/C=C/c1ccc2ncnc(Nc3ccc(Oc4ccc(C)nc4)c(C)c3)c2c1` [CP-724714] gave a % of control [4] of 100%, a % of control [5] of 86% and a % of control (Activated CDC42 kinase 1) of 78%.

With `Cc1cnc(Nc2ccc(F)cc2Cl)nc1-c1c[nH]c(C(=O)N[C@H](CO)c2cccc(Cl)c2)c1` the % of inhibition [6] was 5%.

`COc1cc(N(C)c2ccnc3ccc(C(F)(F)F)cc23)cc(OC)c1OC` showed a % binding [7] of 73%.

`O[C@H]1CC[C@H](Nc2ncc3nc(Nc4c(F)cc(F)cc4F)n([C@H]4CCOC4)c3n2)CC1` showed a % of control [8] of 90%.
